{"source": "paper PMC3808539", "about": "“CtpB Assembles a Gated Protease Tunnel Regulating Cell-Cell Signaling during Spore Formation in Bacillus subtilis” (Cell, 2013)", "key": {"PDZ domain of CtpB": {"system": "PDZ domain of CtpB", "assay": "Peptide spot assay", "assay_type": "binding, Bacillus subtilis", "details": "inverted peptide array on cellulose membrane; CtpB variants 10 μg/ml, overnight 4°C; anti-polyHis chemiluminescence", "experimental": "Peptide spot libraries were generated by synthesizing the 11 C-terminal residues of 1,849 B. subtilis proteins predicted to reside in the intermembrane space onto a cellulose membrane. Membranes were blocked for 4 hr with blocking buffer (blocking reagent, Sigma-Genosys) and subsequently incubated with CtpB. Bound protein was identified using specific antibodies. Further libraries were generated, where identified peptide sequences were systematically permutated.\nPeptide spot libraries were generated by synthesizing the 11 C-terminal residues of 1849 B. subtilis proteins known to reside in the intermembrane space. Peptide libraries were generated by a MultiPep SPOTrobot (INTAVIS Bioanalytical Instruments AG) using an optimized method for generating inverted peptides ([Boisguerin et al., 2007], [Volkmer, 2009]). […] Bound CtpB was detected using a mouse anti-polyHis antibody (Sigma, 1:3,000 in blocking buffer, 2 hr at RT) followed by horseradish-peroxidase conjugated anti-mouse antibody (Calbiochem, 1:2,000 in blocking buffer, 1 hr at RT). […] The signal intensities with background-subtraction were recorded as […] with a LumiImager (Boehringer) and analyzed using the LumiAnalyst software. Secondary libraries for subtitutional analyses were generated by systematically permutating identified peptides and analyzed by the described peptide spot methodology."}, "[1]": {"biological_target": "T1, isolated PDZ domain of CtpB (Bacillus subtilis, UniProt O35002)", "T1 construct": "His tag; made in house; host or cells: E. coli BL21(DE3)pLysS", "T1 sequence (O35002 92-182)": "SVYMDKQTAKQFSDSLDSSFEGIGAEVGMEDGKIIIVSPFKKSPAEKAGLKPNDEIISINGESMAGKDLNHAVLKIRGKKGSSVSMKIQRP", "assay": "Isothermal titration calorimetry, isolated PDZ domain", "assay_type": "binding", "excerpt": "(§1) Figure S4 Peptide-Binding Properties of the PDZ Domain, Related to Figure 4 (A) The C termini of B. subtilis proteins predicted to reside in the intermembrane space were synthesized on a cellulose membrane according to the method of inverted peptides. Spotted membranes were probed with either the PDZ domain of CtpB (left) or the ΔPDZ mutant (right). (B) Identified strong binding peptides were further analyzed by systematically substituting residues critical for binding to the PDZ domain of CtpB. (C) ITC analysis testing the interaction of the indicated peptides with the isolated PDZ domain and full-length CtpB (S309A). Raw data (top) and binding isotherm derived from the integrated heat (bottom) are shown. The determined KD dissociation constants are indicated below the binding curves. […] The final model is overlaid with the omit 2Fo-Fc electron density (1.9 Å resolution, contoured at 1.2 σ) calculated without peptide ligand and Arg168.\n(§2) Thermodynamic values characterizing the interaction between CtpB and peptide ligands were determined by ITC (MCS-ITC; Microcal). […]\n(§3) The interaction between CtpB (wild-type; mutant forms or isolated PDZ domain) and peptide ligands was characterized by ITC measurements (MCS-ITC; Microcal). […] Resulting data were analyzed with the MicroCal ORIGIN software, following the instructions of the manufacturer. […]"}, "CtpB S309A mutant": {"system": "CtpB S309A mutant", "assay": "Cocrystallization of CtpB S309A with peptide", "assay_type": "binding, Bacillus subtilis", "details": "S309A/VPA complex, 1.9 Å, 20 mg/ml CtpB incubated with 1 mM peptide for 1 hr at 19°C", "procedure": "CtpB crystals were grown at 19°C by the sitting-drop vapor-diffusion method using a 2:1 mixture of protein (20 mg/ml) and reservoir solution. […] Finally, diffraction data of CtpBi/VPA was collected at Deutsches Elektronen-Synchrotron (DESY, beamline P14) using a Pilatus detector (Dectris). Integration and scaling of diffraction data were performed with the programs DENZO, and [sequence]\nFor all other structures, phases were determined by molecular replacement using the program PHASER ([McCoy et al., 2007]) and the structure of CtpBa1 as search model. In all cases, energy restrained refinement was performed with the programs CNS ([Brünger et al., 1998]) and PHENIX ([Adams et al., 2010]), utilizing bulk solvent and anisotropic B-factor corrections depending on the development of the Rfree index. Refinement was performed in multiple cycles, interrupted for manual model re-building with the program O ([Jones et al., 1991]). Final models were verified with the program MolProbity ([Chen et al., 2010]) and crystal contacts analyzed using the PISA algorithm implemented on the Protein Data Bank Europe website ([Krissinel and Henrick, 2007])."}, "full-length CtpB (S309A)": {"biological_target": "T2, full-length CtpB (S309A) (Bacillus subtilis, UniProt O35002, S309A)", "T2 construct": "the isolated PDZ domain and full-length CtpB (S309A); His tag; made in house; host or cells: E. coli BL21(DE3)pLysS", "T2 sequence (O35002 24-480 S309A)": "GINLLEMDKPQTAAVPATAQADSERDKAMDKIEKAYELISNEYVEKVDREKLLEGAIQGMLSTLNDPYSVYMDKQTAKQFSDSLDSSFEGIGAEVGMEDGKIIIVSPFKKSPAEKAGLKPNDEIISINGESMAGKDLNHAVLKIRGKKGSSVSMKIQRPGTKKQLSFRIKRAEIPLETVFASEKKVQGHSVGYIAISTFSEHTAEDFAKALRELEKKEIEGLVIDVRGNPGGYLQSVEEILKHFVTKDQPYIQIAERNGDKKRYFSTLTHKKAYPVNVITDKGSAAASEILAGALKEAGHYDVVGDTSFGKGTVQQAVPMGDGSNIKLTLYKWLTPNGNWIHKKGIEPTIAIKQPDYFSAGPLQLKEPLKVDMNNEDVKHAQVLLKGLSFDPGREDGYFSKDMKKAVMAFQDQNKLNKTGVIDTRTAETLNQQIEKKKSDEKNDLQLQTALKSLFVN", "assay": "Isothermal titration calorimetry, full-length CtpB (S309A)", "assay_type": "binding", "excerpt": "as §1, §2, §3"}, "CtpB R168F": {"biological_target": "T3, CtpB R168F (Bacillus subtilis, UniProt O35002, R168F)", "T3 construct": "with the full-length CtpB variants R168A, R168F and V118Y; His tag; made in house; host or cells: E. coli BL21(DE3)pLysS", "T3 sequence (O35002 24-480 R168F)": "as the sequence (O35002 24-480 S309A) above, with R145F, A286S counted along it", "assay": "Isothermal titration calorimetry, full-length CtpB R168F", "assay_type": "binding", "experimental": "(§4) Figure S5 Peptide Binding to the PDZ Domain Stabilizes the Active Protease State of CtpB, Related to Figure 5 (A) The interfaces of the PDZ domain with the other domains of CtpB were analyzed to evaluate the prevailing conformation of CtpB in solution. The ribbon representations of CtpBi (left) and CtpBa1 (right) emphasize the PDZ domain that is shown in yellow. Interactions stabilizing the respective domain interfaces (summarized in top panel) are highlighted in orange and the residues forming hydrogen-bonds are listed. […] (B) ITC analysis characterizing the interaction of a peptide having an Ala-Tyr-Ala C terminus with the full-length CtpB variants R168A, R168F and V118Y. Raw data (top) and binding isotherm derived from the integrated heat (bottom) are shown. The determined KD dissociation constants are indicated below the binding curves. (C) Left: a ribbon model of the CtpB V118Y mutant structure, which was crystallized in the same resting conformation as CtpBi. […]\nas §2, §3"}, "CtpB R168A": {"biological_target": "T4, CtpB R168A (Bacillus subtilis, UniProt O35002, R168A)", "T4 construct": "with the full-length CtpB variants R168A, R168F and V118Y; His tag; made in house; host or cells: E. coli BL21(DE3)pLysS", "T4 sequence (O35002 24-480 R168A)": "as the sequence (O35002 24-480 S309A) above, with R145A, A286S counted along it", "assay": "Isothermal titration calorimetry, full-length CtpB R168A", "assay_type": "binding", "experimental": "as §4, §2, §3"}, "CtpB": {"system": "CtpB", "assay": "Degradation of in vitro translated 4FAproc constructs with distinct C termini by CtpB", "assay_type": "biochemical, Bacillus subtilis", "details": "autoradiography", "experimental": "4FAproc with alternative C-termini was produced using the promega TNT Quick Coupled Transcription/Translation System, following manufactures instructions. Briefly, 40 μl of TNT Master Mix were added to 0.5 μg of template plasmid DNA and 20 μCi of ^35S-methionine (Perkinelmer). The coupled transcription-translation reaction was carried out upon incubation at 30°C for 2 hr. Relative product amounts were normalized based on ^35S-autoradiography following SDS-PAGE analysis.\nTo measure the proteolytic activities of the SpoIV signaling proteases, recombinant, purified proteases (CtpB, 4B or both, 3 μM) were mixed with respective 4FA model substrates (15 μM) and incubated for various times at 25°C. Reactions were stopped by adding SDS loading buffer. Subsequently, samples were incubated for 5 min at 95°C and analyzed by SDS-PAGE and Coomassie staining. […] Reaction aliquots were stopped and analyzed as described. To compare the cleavage efficiency of various CtpB mutants, the amount of 4FAproc substrate was quantified by analyzing the stained gels using the software ImageJ ([Schneider et al., 2012]). […] Reactions were analyzed by SDS–PAGE and immunoblotting using anti-GFP antibodies ([Rudner and Losick, 2002]). […] The cleavage assays were carried out as described and analyzed by SDS-PAGE and ^35S-autoradiography using Amercham Hyperfilm™ MP films."}}, "note": "Ends that are not written are not given here.", "data": [{"substance": "H-NLVLAGLHSYA-OH", "values": [{"measurement": "binding to PDZ domain in peptide spot analysis", "setting": "PDZ domain of CtpB", "result": "identified PDZ binder"}]}, {"substance": "FMLLRRKAYV", "values": [{"measurement": "Kd", "setting": "[1]", "result": 0.9, "unit": "µM"}]}, {"substance": "H-EMDKPQTAAVPA-OH [oligopeptide having a Val-Pro-Ala C terminus, cocrystallized with S309A]", "values": [{"measurement": "conformation of S309A cocrystallized with peptide", "setting": "CtpB S309A mutant", "result": "active conformation"}, {"measurement": "conformation of S309A cocrystallized with peptide", "setting": "CtpB S309A mutant; listed as oligopeptide having a Val-Pro-Ala C terminus", "result": "peptide binding itself is sufficient to transform the resting protease into the active conformation"}]}, {"substance": "FMLLRRKAYA", "values": [{"measurement": "Kd", "setting": "full-length CtpB (S309A)", "result": 6.5, "unit": "µM"}, {"measurement": "Kd", "setting": "[1]", "result": 2.3, "unit": "µM"}, {"measurement": "Kd", "setting": "CtpB R168F", "result": 40, "unit": "µM"}, {"measurement": "Kd", "setting": "CtpB R168A", "result": 21, "unit": "µM"}]}, {"substance": "Ala-Pro-Ala", "values": [{"measurement": "degradation by CtpB (in words)", "setting": "CtpB; 0.3 μM wild-type CtpB, in vitro translated 35S-methionine-labeled 4FAproc constructs", "result": "rapidly degraded"}, {"measurement": "efficiency in stimulating protease function", "setting": "CtpB; 4FAproc constructs applied at decreasing concentrations, 0.3 μM CtpB", "result": "less efficient in stimulating protease function than the Ala-Tyr-Val motif, especially at lower concentrations"}]}]}
